# In patent publication US9738932B2, “Biomarkers for cardiovascular side-effects induced by cox-2 inhibitory compounds” (FIRALIS SAS, priority 2005, dated 2017):
# Experiments:
# [1] = test system: mRNA expression in cardiovascular tissues; details: cynomolgus monkey, in vivo, 2 weeks
# [2] = test system: mRNA expression in cardiovascular tissues; experiment: Affymetrix GeneChip mRNA expression profiling of monkey tissues (iliac vein, pulmonary vein, aorta, carotid artery, heart) after two-week oral-gavage treatment; details: iliac vein; group average (Vioxx without A60055)
smiles,measurement,setting,value
Cc1ccc(-c2cc(C(F)(F)F)nn2-c2ccc(S(N)(=O)=O)cc2)cc1 [Celebrex],ICSBP1 (204057_at) avg fold change vs control,[1],1.6 fold
same,IFI27 (202411_at) avg fold change vs control,[1],3.3 fold
same,IFI30 (201422_at) avg fold change vs control,[1],1.3 fold
same,IFI44 (214453_s_at) avg fold change vs control,[1],1.3 fold
same,IFIT1 (203153_at) avg fold change vs control,[1],0.8 fold
same,IFIT2 (217502_at) avg fold change vs control,[1],1.1 fold
same,IFIT4 (204747_at) avg fold change vs control,[1],0.8 fold
same,IFITM2 (201315_x_at) avg fold change vs control,[1],1.0 fold
same,IFITM3 (212203_x_at) avg fold change vs control,[1],1.1 fold
same,IGF1 (209541_at) avg fold change vs control,[1],0.9 fold
same,IGFBP4 (201508_at) avg fold change vs control,[1],0.6 fold
same,IL1A (208200_at) avg fold change vs control,[1],0.4 fold
same,IL2RG (204116_at) avg fold change vs control,[1],3.8 fold
same,IL27RA (205926_at) avg fold change vs control,[1],1.1 fold
same,INDO (210029_at) avg fold change vs control,[1],1.6 fold
same,INPP5D (203332_s_at) avg fold change vs control,[1],1.6 fold
same,ITGB2 (202803_s_at) avg fold change vs control,[1],1.1 fold
same,JAK1 (214377_s_at) avg fold change vs control,[1],0.9 fold
same,KLKB1 (206541_at) avg fold change vs control,[1],1.1 fold
same,LCK (204890_s_at) avg fold change vs control,[1],3.2 fold
same,LCP2 (205270_s_at) avg fold change vs control,[1],1.9 fold
same,LILRB1 (207857_at) avg fold change vs control,[1],1.0 fold
same,LILRB1 (211100_x_at) avg fold change vs control,[1],1.4 fold
same,LILRB3 (208594_x_at) avg fold change vs control,[1],1.1 fold
same,LILRB3 (210225_x_at) avg fold change vs control,[1],1.3 fold
same,LY86 (205859_at) avg fold change vs control,[1],1.5 fold
same,LY96 (206584_at) avg fold change vs control,[1],1.4 fold
same,LYN (210754_s_at) avg fold change vs control,[1],1.5 fold
same,MAF (209348_s_at) avg fold change vs control,[1],1.3 fold
same,PCOLCE (202465_at) avg fold change vs control,[1],0.7 fold
same,PLCL2 (216217_at) avg fold change vs control,[1],1.0 fold
same,PLSCR1 (202446_s_at) avg fold change vs control,[1],1.1 fold
same,PRC1 (218009_s_at) avg fold change vs control,[1],1.1 fold
same,PRG1 (201858_s_at) avg fold change vs control,[1],1.0 fold
same,PRG1 (201859_at) avg fold change vs control,[1],1.2 fold
same,PTPN22 (206060_s_at) avg fold change vs control,[1],2.5 fold
same,PTPRC (207238_s_at) avg fold change vs control,[1],2.5 fold
same,SOCS3 (206360_s_at) avg fold change vs control,[1],0.9 fold
same,STAT1 (209969_s_at) avg fold change vs control,[1],2.7 fold
same,STAT1 (AFFX-HUMISGF3A/M97935_5_at) avg fold change vs control,[1],0.9 fold
same,STAT1 (AFFX-HUMISGF3A/M97935_MA_at) avg fold change vs control,[1],1.3 fold
same,STAT1 (AFFX-HUMISGF3A/M97935_MB_at) avg fold change vs control,[1],1.2 fold
same,TAPBP (208829_at) avg fold change vs control,[1],1.1 fold
same,TCTEL1 (201999_s_at) avg fold change vs control,[1],1.0 fold
same,TLR1 (210176_at) avg fold change vs control,[1],1.3 fold
same,TLR2 (204924_at) avg fold change vs control,[1],0.8 fold
same,TNFAIP3 (202643_s_at) avg fold change vs control,[1],1.5 fold
same,TNFAIP3 (202644_s_at) avg fold change vs control,[1],1.7 fold
same,TNFSF6 (210865_at) avg fold change vs control,[1],1.4 fold
same,TRGC2 (211144_x_at) avg fold change vs control,[1],1.2 fold
same,TRGC2 (216920_s_at) avg fold change vs control,[1],1.6 fold
same,VCAM1 (203868_s_at) avg fold change vs control,[1],1.9 fold
same,XCL1 (206366_x_at) avg fold change vs control,[1],2.0 fold
same,XCL1 (214567_s_at) avg fold change vs control,[1],3.5 fold
same,XLKD1 (219059_s_at) avg fold change vs control,[1],1.5 fold
same,cig5 (213797_at) avg fold change vs control,[1],1.3 fold
same,"ACE (209749_s_at) mRNA expression, Avg fold changes vs control",[2],0.8 fold
same,"B2M (216231_s_at) mRNA expression, Avg fold changes vs control",[2],1.3 fold
same,"BCL6 (215990_s_at) mRNA expression, Avg fold changes vs control",[2],0.9 fold
same,"BTN2A2 (205298_s_at) mRNA expression, Avg fold changes vs control",[2],1.2 fold
same,"CCR1 (205098_at) mRNA expression, Avg fold changes vs control",[2],0.9 fold
same,"CD2 (205831_at) mRNA expression, Avg fold changes vs control",[2],1.5 fold
same,"CD48 (204118_at) mRNA expression, Avg fold changes vs control",[2],1.7 fold
same,"CD53 (203416_at) mRNA expression, Avg fold changes vs control",[2],2.3 fold
same,"CDC2 (210559_s_at) mRNA expression, Avg fold changes vs control",[2],1.3 fold
same,"CYBB (203922_s_at) mRNA expression, Avg fold changes vs control",[2],1.7 fold
same,"EMP3 (203729_at) mRNA expression, Avg fold changes vs control",[2],0.9 fold
same,"FCER1G (204232_at) mRNA expression, Avg fold changes vs control",[2],1.3 fold
same,"FCGR2A (203561_at) mRNA expression, Avg fold changes vs control",[2],1.4 fold
same,"FCGRT (218831_s_at) mRNA expression, Avg fold changes vs control",[2],1.0 fold
same,"FKBP11 (219117_s_at) mRNA expression, Avg fold changes vs control",[2],0.8 fold
same,"FKBP11 (219118_at) mRNA expression, Avg fold changes vs control",[2],1.0 fold
same,"GP6 (220336_s_at) mRNA expression, Avg fold changes vs control",[2],1.1 fold
same,"HCLS1 (202957_at) mRNA expression, Avg fold changes vs control",[2],1.5 fold
same,"HEM1 (209734_at) mRNA expression, Avg fold changes vs control",[2],1.5 fold
same,"HLA-A (210514_x_at) mRNA expression, Avg fold changes vs control",[2],1.1 fold
same,"HLA-A (213932_x_at) mRNA expression, Avg fold changes vs control",[2],1.3 fold
same,"HLA-C (211799_x_at) mRNA expression, Avg fold changes vs control",[2],1.0 fold
same,"HLA-E (200904_at) mRNA expression, Avg fold changes vs control",[2],1.2 fold
same,"HLA-F (221978_at) mRNA expression, Avg fold changes vs control",[2],1.2 fold
same,"ICAM1 (202637_s_at) mRNA expression, Avg fold changes vs control",[2],0.9 fold
same,"IL13RA1 (210904_s_at) mRNA expression, Avg fold changes vs control",[2],0.9 fold
same,"PIK3CD (203879_at) mRNA expression, Avg fold changes vs control",[2],1.7 fold
same,"PRKCBP1 (209048_s_at) mRNA expression, Avg fold changes vs control",[2],1.2 fold
same,"PRKCBP1 (209049_s_at) mRNA expression, Avg fold changes vs control",[2],1.2 fold
same,"PTPN7 (204852_s_at) mRNA expression, Avg fold changes vs control",[2],2.0 fold
same,"SIGIRR (52940_at) mRNA expression, Avg fold changes vs control",[2],1.2 fold
same,"STAT1 (200887_s_at) mRNA expression, Avg fold changes vs control",[2],1.1 fold
same,"STAT1 (AFFX-HUMISGF3A/M97935_3_at) mRNA expression, Avg fold changes vs control",[2],1.1 fold
same,"STAT3 (208992_s_at) mRNA expression, Avg fold changes vs control",[2],1.0 fold
same,"TCIRG1 (204158_s_at) mRNA expression, Avg fold changes vs control",[2],0.9 fold
same,"THY1 (213869_x_at) mRNA expression, Avg fold changes vs control",[2],0.8 fold
same,"TMPO (209753_s_at) mRNA expression, Avg fold changes vs control",[2],0.9 fold
same,"TMSB10 (217733_s_at) mRNA expression, Avg fold changes vs control",[2],1.1 fold
same,"TNFRSF21 (218856_at) mRNA expression, Avg fold changes vs control",[2],1.5 fold
same,"TRB@ (210915_x_at) mRNA expression, Avg fold changes vs control",[2],2.5 fold
same,"TRB@ (213193_x_at) mRNA expression, Avg fold changes vs control",[2],2.4 fold
